Values joined by “and” are separate entries in the source; they are usually repeats but may differ in a detail not shown here. Equal values may be shown once. ± gives the expanded uncertainty stated by the source.
Assay: molar enthalpy of vaporization or sublimation
Details: 298.15 K; Liquid; Static calorimetry
With `CCCCCCCCCC` [decane] the molar enthalpy was 49.9 kJ/mol and 52.2 kJ/mol.
`CCOC(=O)c1ccccc1N` [ethyl 2-aminobenzoate] gave a molar enthalpy of 71 ± 1.3 kJ/mol.
Work on `CCOC(=O)c1cccc(N)c1` [ethyl 3-aminobenzoate] yielded a molar enthalpy of 83.2 ± 2.2 kJ/mol.
